Assay results published in patent US6967196B1, “Sulfonamide compounds and uses thereof” (Bristol-Myers Squibb Company, priority 1999, dated 2005).
Like-named read-outs stand apart in the source and are kept apart here.

Tested on: amyloid β production in transfected H4 (human neuroglioma) cells stably expressing APP constructs
Experiment: In vitro cell-based assay of inhibitors of amyloid β production (ELISA)
Settings: transfected H4 cells stably expressing APP constructs, approximately 16 hours incubation, amyloid β in medium by ELISA, read-out: ACTIVITY (IC50, inhibition of amyloid β production)
Procedure, shortened: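 Transfected H4 cells stably expressing wild-type or variant APP were exposed to compounds (initial screen 10-100 μM) for about 16 h. Secreted Aβ in the medium was quantified by sandwich ELISA (C-terminal-specific monoclonal capture, N-terminal-specific polyclonal detection) against an Aβ standard curve; dose-response runs followed for actives.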

`C[C@H](CCCN1CCCC(S(C)(=O)=O)C1)N(c1cc(Cl)ccc1Cl)S(=O)(=O)c1ccc(Cl)cc1` (stereo partly drawn) [Example 1109, 4-chloro-N-(2,5-dichlorophenyl)-N-[4-[(3-methylsulfonyl)-1-piperidinyl]-1(R)-methylbutyl]benzenesulfonamide] gave an IC50 of at most 25 nM.
With `C[C@H](CCN1CCSC1C(=O)O)N(c1cc(Cl)ccc1Cl)S(=O)(=O)c1ccc(Cl)cc1` (stereo partly drawn) [Example 1111, 4-chloro-N-(2,5-dichlorophenyl)-N-[3-(2-carboxy-3-thiazolidinyl)-1(R)-methylpropyl]benzenesulfonamide] the IC50 (Homo sapiens, 16 h) was 25 to 50 nM.
Work on `C[C@H](CCCCN1CCC(S(C)(=O)=O)C1)N(c1cc(Cl)ccc1Cl)S(=O)(=O)c1ccc(Cl)cc1` (stereo partly drawn) [Example 1112, 4-chloro-N-(2,5-dichlorophenyl)-N-[5-[(3-methylsulfonyl)-1-pyrrolidinyl]-1(R)-methylpentyl]benzenesulfonamide] yielded an IC50 of 25 to 50 nM.
Work on `CC(=O)NCCC[C@@H](C)N(c1cc(Cl)ccc1Cl)S(=O)(=O)c1ccc(Cl)cc1` [Example 1113, 4-chloro-N-(2,5-dichlorophenyl)-N-[4-(acetylamino)-1(R)-methylbutyl]benzenesulfonamide] yielded an IC50 (Homo sapiens, 16 h) of 25 to 50 nM.
In the case of `CC(CCCN1CCOCC1)N(c1cc(Cl)ccc1F)S(=O)(=O)c1ccc(Cl)cc1` (centres unmarked) [Example 1114, 4-chloro-N-(5-chloro-2-fluorophenyl)-N-[4-(4-morpholinyl)-1-methylbutyl]benzenesulfonamide], the IC50 (Homo sapiens, 16 h) is reported as 25 to 50 nM.
Compound `C[C@H](CCCCN1CCCC(S(C)(=O)=O)C1)N(c1cc(Cl)ccc1Cl)S(=O)(=O)c1ccc(Cl)cc1` (stereo partly drawn) [Example 1115, 4-chloro-N-(2,5-dichlorophenyl)-N-[5-[(3-methylsulfonyl)-1-piperidinyl]-1(R)-methylpentyl]benzenesulfonamide] has an IC50 of 25 to 50 nM.
With `COC(=O)C1SCCN1CCCC[C@@H](C)N(c1cc(Cl)ccc1Cl)S(=O)(=O)c1ccc(Cl)cc1` (stereo partly drawn) [Example 1117, 4-chloro-N-(2,5-dichlorophenyl)-N-[5-(2-methoxycarbonyl-3-thiazolidinyl)-1(R)-methylpentyl]benzenesulfonamide] the IC50 (Homo sapiens, 16 h) was 25 to 50 nM.
`C[C@H](CCN1CCCC(S(C)(=O)=O)C1)N(c1cc(Cl)ccc1Cl)S(=O)(=O)c1ccc(Cl)cc1` (stereo partly drawn) [Example 1118, 4-chloro-N-(2,5-dichlorophenyl)-N-[3-[(3-methylsulfonyl)-1-piperidinyl]-1(R)-methylpropyl]benzenesulfonamide] was tested, and the IC50 was 25 to 50 nM.
`COC(=O)C1SCCN1CC[C@@H](C)N(c1cc(Cl)ccc1Cl)S(=O)(=O)c1ccc(Cl)cc1` (stereo partly drawn) [Example 1119, 4-chloro-N-(2,5-dichlorophenyl)-N-[3-(2-methoxycarbonyl-3-thiazolidinyl)-1(R)-methylpropyl]benzenesulfonamide] showed an IC50 (Homo sapiens, 16 h) of 25 to 50 nM.
Compound `CC(C)Oc1c(NCCC[C@@H](C)N(c2cc(F)ccc2F)S(=O)(=O)c2ccc(Cl)cc2)c(=O)c1=O` [Example 1120, 4-chloro-N-(2,5-difluorophenyl)-N-[4-(2-isopropoxy-3,4-dioxo-1-cyclobutenyl)amine-1(R)-methylbutyl]benzenesulfonamide] has an IC50 of 25 to 50 nM.
`C[C@H](CCCN1CCCCC1CS(C)(=O)=O)N(c1cc(Cl)ccc1Cl)S(=O)(=O)c1ccc(Cl)cc1` (stereo partly drawn) [Example 1121, 4-chloro-N-(2,5-dichlorophenyl)-N-[4-[2-[(methylsulfonyl)methyl]-1-piperidinyl]-1(R)-methylbutyl]benzenesulfonamide] showed an IC50 (Homo sapiens, 16 h) of 50 to 100 nM.
In the case of `CC(C)Oc1c(NCCC[C@@H](C)N(c2cc(Cl)ccc2F)S(=O)(=O)c2ccc(Cl)cc2)c(=O)c1=O` [Example 1122, 4-chloro-N-(5-chloro-2-fluorophenyl)-N-[4-(2-isopropoxy-3,4-dioxo-1-cyclobutenyl)amine-1(R)-methylbutyl]benzenesulfonamide], the IC50 is reported as 50 to 100 nM.
For `C[C@H](CCCCN1CCC(S(C)(=O)=O)CC1)N(c1cc(Cl)ccc1Cl)S(=O)(=O)c1ccc(Cl)cc1` [Example 1123, 4-chloro-N-(2,5-dichlorophenyl)-N-[5-[(4-methylsulfonyl)-1-piperidinyl]-1(R)-methylpentyl]benzenesulfonamide], the IC50 was 50 to 100 nM.
`C[C@H](CCCNC(=O)[C@@H](O)c1ccccc1)N(c1cc(Cl)ccc1Cl)S(=O)(=O)c1ccc(Cl)cc1` [Example 1124] gave an IC50 of 50 to 100 nM.
In the case of `CC(C)Oc1c(NCC[C@@H](C)N(c2cc(F)ccc2F)S(=O)(=O)c2ccc(Cl)cc2)c(=O)c1=O` [Example 1125, 4-chloro-N-(2,5-difluorophenyl)-N-[3-(2-isopropoxy-3,4-dioxo-1-cyclobutenyl)amine-1(R)-methylpropyl]benzenesulfonamide], the IC50 is reported as 50 to 100 nM.
`C[C@H](CCCN1CCC(S(C)(=O)=O)CC1)N(c1cc(Cl)ccc1Cl)S(=O)(=O)c1ccc(Cl)cc1` [Example 1126, 4-chloro-N-(2,5-dichlorophenyl)-N-[4-[(4-methylsulfonyl)-1-piperidinyl]-1(R)-methylbutyl]benzenesulfonamide] showed an IC50 of 50 to 100 nM.
Compound `CC(C)Oc1c(NCC[C@@H](C)N(c2cc(Cl)ccc2F)S(=O)(=O)c2ccc(Cl)cc2)c(=O)c1=O` [Example 1127, 4-chloro-N-(5-chloro-2-fluorophenyl)-N-[3-(2-isopropoxy-3,4-dioxo-1-cyclobutenyl)amine-1(R)-methylpropyl]benzenesulfonamide] has an IC50 of 50 to 100 nM.
Work on `CC(C)Oc1c(NCCC[C@@H](C)N(c2cc(Cl)ccc2Cl)S(=O)(=O)c2ccc(Cl)cc2)c(=O)c1=O` [Example 1128, 4-chloro-N-(2,5-dichlorophenyl)-N-[4-(2-isopropoxy-3,4-dioxo-1-cyclobutenyl)amine-1(R)-methylbutyl]benzenesulfonamide] yielded an IC50 of 50 to 100 nM.
`C[C@H](CCCNC(=O)[C@H](O)c1ccccc1)N(c1cc(Cl)ccc1Cl)S(=O)(=O)c1ccc(Cl)cc1` [Example 1129] gave an IC50 of 50 to 100 nM.
Compound `COC(=O)NCCC[C@@H](C)N(c1cc(Cl)ccc1Cl)S(=O)(=O)c1ccc(Cl)cc1` [Example 1131, 4-chloro-N-(2,5-dichlorophenyl)-N-[4-[[(methoxy)carbonyl]amino]-1-methylbutyl]benzenesulfonamide] has an IC50 (Homo sapiens, 16 h) of 50 to 100 nM.
In the case of `C[C@H](CCN1CCCC(S(C)(=O)=O)C1)N(c1cc(Cl)ccc1Cl)S(=O)(=O)c1ccc(Cl)cc1` (stereo partly drawn) [Example 1132, 4-chloro-N-(2,5-dichlorophenyl)-N-[3-[(3-methylsulfonyl)-1-piperidinyl]-1(R)-methylpropyl]benzenesulfonamide], the IC50 is reported as 50 to 100 nM.
`COC(=O)C1SCCN1CC[C@@H](C)N(c1cc(Cl)ccc1Cl)S(=O)(=O)c1ccc(Cl)cc1` (stereo partly drawn) [Example 1133, 4-chloro-N-(2,5-dichlorophenyl)-N-[3-(2-methoxycarbonyl-3-thiazolidinyl)-1(R)-methylpropyl]benzenesulfonamide] showed an IC50 of 50 to 100 nM.
For `CSC1CCN(CCC[C@@H](C)N(c2cc(Cl)ccc2Cl)S(=O)(=O)c2ccc(Cl)cc2)C1` (stereo partly drawn) [Example 1134, 4-chloro-N-(2,5-dichlorophenyl)-N-[4-[(3-methylthio)-1-pyrrolidinyl]-1(R)-methylbutyl]benzenesulfonamide], the IC50 was 100 to 500 nM.
`C[C@H](CCCN(CCCn1ccnc1)CC1CC1)N(c1cc(Cl)ccc1Cl)S(=O)(=O)c1ccc(Cl)cc1` [Example 1135] showed an IC50 of 100 to 500 nM.
`C[C@H](CCCN1CCCC(S(C)(=O)=O)C1)N(c1cc(Cl)ccc1Cl)S(=O)(=O)c1ccc(Cl)cc1` (some centres unmarked) [Example 1136] was tested, and the IC50 was 100 to 500 nM.
For `CC(CCCN=[N+]=[N-])N(c1cc(Cl)ccc1Cl)S(=O)(=O)c1ccc(Cl)cc1` (centres unmarked) [Example 1138, 4-chloro-N-(2,5-dichlorophenyl)-N-[4-(azido)-1-methylbutyl]benzenesulfonamide], the IC50 (Homo sapiens, 16 h) was 100 to 500 nM.
`CC(CC[C@@H](C)N(c1cc(Cl)ccc1Cl)S(=O)(=O)c1ccc(Cl)cc1)N1CCCC(S(C)(=O)=O)C1` (some centres unmarked) [Example 1140] showed an IC50 of 100 to 500 nM.
With `CC(C)Oc1c(NCC[C@@H](C)N(c2cc(F)ccc2F)S(=O)(=O)c2ccc(Cl)cc2)c(=O)c1=O` [Example 1141, 4-chloro-N-(2,5-difluorophenyl)-N-[3-(2-isopropoxy-3,4-dioxo-1-cyclobutenyl)amine-1(R)-methylpropyl]benzenesulfonamide] the IC50 was 100 to 500 nM.
For `CSC1CCCN(CC[C@@H](C)N(c2cc(Cl)ccc2Cl)S(=O)(=O)c2ccc(Cl)cc2)C1` (stereo partly drawn) [Example 1142, 4-chloro-N-(2,5-dichlorophenyl)-N-[3-[(3-methylthio)-1-piperidinyl]-1(R)-methylpropyl]benzenesulfonamide], the IC50 was 100 to 500 nM.
In the case of `CSC1CCN(CCC[C@@H](C)N(c2cc(Cl)ccc2Cl)S(=O)(=O)c2ccc(Cl)cc2)C1` (stereo partly drawn) [Example 1144, 4-chloro-N-(2,5-dichlorophenyl)-N-[4-[(4-methylthio)-1-pyrrolidinyl]-1(R)-methylbutyl]benzenesulfonamide], the IC50 is reported as 100 to 500 nM.
`C[C@H](CCCNC(=O)OC(C)(C)C)N(c1cc(Cl)ccc1Cl)S(=O)(=O)c1ccc(Cl)cc1` [Example 1145, 4-chloro-N-(2,5-dichlorophenyl)-N-[4-[[(1,1-dimethylethoxy)carbonyl]amino]-1-methylbutyl]benzenesulfonamide] was tested, and the IC50 (Homo sapiens, 16 h) was 100 to 500 nM.
In the case of `C[C@H](CCN1CCC(S(C)(=O)=O)CC1)N(c1cc(Cl)ccc1Cl)S(=O)(=O)c1ccc(Cl)cc1` [Example 1146, 4-chloro-N-(2,5-dichlorophenyl)-N-[3-[(4-methylsulfonyl)-1-piperidinyl]-1(R)-methylpropyl]benzenesulfonamide], the IC50 is reported as 100 to 500 nM.
`CSC1CCN(CC[C@@H](C)N(c2cc(Cl)ccc2Cl)S(=O)(=O)c2ccc(Cl)cc2)C1` (stereo partly drawn) [Example 1147, 4-chloro-N-(2,5-dichlorophenyl)-N-[3-[(3-methylthio)-1-pyrrolidinyl]-1(R)-methylpropyl]benzenesulfonamide] was tested, and the IC50 was 100 to 500 nM.
`CSC1CCN(CCC[C@@H](C)N(c2cc(Cl)ccc2Cl)S(=O)(=O)c2ccc(Cl)cc2)C1` (some centres unmarked) [Example 1148] was tested, and the IC50 was 100 to 500 nM.
`C[C@H](CCCNC(=O)c1ccccc1)N(c1cc(Cl)ccc1Cl)S(=O)(=O)c1ccc(Cl)cc1` [Example 1149, 4-chloro-N-(2,5-dichlorophenyl)-N-[4-[[(phenyl)carbonyl]amino]-1-methylbutyl]benzenesulfonamide] was tested, and the IC50 (Homo sapiens, 16 h) was 100 to 500 nM.
